According to patent publication US20040101576A1, “IMMUNOPOTENTIATORS” (priority 1997, published 2004):

System: Langerhans' cells
Conditions: antigen (trinitrobenzenesulfonic acid, 1 mg/ml) added, Langerhans' cells UV irradiated, 3 mM glutathione added during irradiation; antigen only 17,500, antigen + UV 5,000 (FIG. 1)
Protocol: An antigen (trinitrobenzenesulfonic acid, 1 mg/ml) was added to Langerhans' cells and, after cleaning, they were mixed and cultured with T cells obtained by purifying lymph gland cell floating fluid with a nylon fiber column (Wako).

N[C@@H](CCC(=O)N[C@@H](CS)C(=O)NCC(=O)O)C(=O)O [glutathione]
multiplication of the T cells: 11,000
